Assay results as given in patent US9193729B2, “Inhibiting transient receptor potential ion channel TRPA1” (Cubist Pharmaceuticals, Inc., priority 2011, dated 2015).

How the values were obtained:
hTRPV4 = hTRPV4 (Homo sapiens, UniProt Q9HBA0); test: Patch clamp selectivity, hTRPV4 (block); assay type: cell-based; settings: hTRPV4 vs TRPA1
Method: (§1) Data for TRPA1 inhibition and the selectivity of TRPA1 inhibition was obtained by this method for the compound of Formula (Ia) and included in Table 1 and Table 2. All currents were recorded in whole-cell configuration using EPC-9 and EPC-10 amplifiers and Patchmaster software (HEKA). […] The standard pipette solution consisted of 140 mM CsAsp, 10 mM EGTA, 10 mM HEPES, 2.27 mM MgCl2, 1.91 mM CaCl2, 4 mM MgATP, and 0.1-0.3 mM Na2GTP, with pH adjusted to 7.2 with CsOH. In addition, a solution containing 145 mM CsCl, 10 mM HEPES, 10 mM EGTA and 1 mM MgCl2 (pH 7.2 adjusted with CsOH) can be used. The standard bath solution contained 150 mM NaCl, 10 mM HEPES, 10 mM glucose, 4.5 mM KCl, 1 mM EGTA, 3 mM MgCl2, with pH adjusted to 7.4 with NaOH. In some instances, 2 mM CaCl2 was added in place of EGTA and the concentration of MgCl2 was reduced to 1 mM.
(§2) Data were collected either by continuous recordings at −60 mV or by applying voltage ramps from a holding potential of 0 mV every 4 s. […] Inward and outward currents were analyzed from the ramps at −80 and 80 mV, respectively. […]
(§3) Solutions were switched using a gravity-fed continuous focal perfusion system. […] Temperatures were confirmed using a thermistor (Warner Instruments, TA-29), with temperatures at the recorded cell estimated to be within +/−2° C. of those reported. […]

healthy male volunteers = test: Single ascending dose Phase 1A study; assay type: in vivo, human; settings: 6 ascending single doses, placebo-controlled
Description: A randomized, double-blind, placebo-controlled, cross-over, single dose, safety, tolerability and pharmacokinetic study of 6 ascending doses of the compound of Formula (Ia) was undertaken in two cohorts of healthy male volunteers. A total of eighteen eligible healthy mail volunteers were recruited utilizing an alternating panel design. The first cohort of nine subjects (Cohort 1) was sequentially enrolled into 3 of 6 dosing periods (Dose Levels 1, 3, and 5). The remaining cohort of nine subjects (Cohort 2) was enrolled in the other 3 dosing periods (Dose Levels 2, 4, and 6). Within each dosing period, subjects were randomly assigned 2:1 to the compound of Formula (I) (n=6) or placebo (n=3). Each subject received one dose of placebo and two different doses of the compound of Formula (I) over the course of their participation in all three dosing periods. Subjects were equally randomized to one of 3 possible sequences, namely 1) placebo, active, active, 2) active, placebo, active, and 3) active, active, placebo.

rTRPA1 = rTRPA1 (Rattus norvegicus, UniProt Q6RI86); test: Whole-cell patch clamp inhibition of rTRPA1; assay type: cell-based; settings: rTRPA1, 10 micromolar AITC activation; read-out: IC50 Inward current
rTRPA1, sequence (Q6RI86 whole entry): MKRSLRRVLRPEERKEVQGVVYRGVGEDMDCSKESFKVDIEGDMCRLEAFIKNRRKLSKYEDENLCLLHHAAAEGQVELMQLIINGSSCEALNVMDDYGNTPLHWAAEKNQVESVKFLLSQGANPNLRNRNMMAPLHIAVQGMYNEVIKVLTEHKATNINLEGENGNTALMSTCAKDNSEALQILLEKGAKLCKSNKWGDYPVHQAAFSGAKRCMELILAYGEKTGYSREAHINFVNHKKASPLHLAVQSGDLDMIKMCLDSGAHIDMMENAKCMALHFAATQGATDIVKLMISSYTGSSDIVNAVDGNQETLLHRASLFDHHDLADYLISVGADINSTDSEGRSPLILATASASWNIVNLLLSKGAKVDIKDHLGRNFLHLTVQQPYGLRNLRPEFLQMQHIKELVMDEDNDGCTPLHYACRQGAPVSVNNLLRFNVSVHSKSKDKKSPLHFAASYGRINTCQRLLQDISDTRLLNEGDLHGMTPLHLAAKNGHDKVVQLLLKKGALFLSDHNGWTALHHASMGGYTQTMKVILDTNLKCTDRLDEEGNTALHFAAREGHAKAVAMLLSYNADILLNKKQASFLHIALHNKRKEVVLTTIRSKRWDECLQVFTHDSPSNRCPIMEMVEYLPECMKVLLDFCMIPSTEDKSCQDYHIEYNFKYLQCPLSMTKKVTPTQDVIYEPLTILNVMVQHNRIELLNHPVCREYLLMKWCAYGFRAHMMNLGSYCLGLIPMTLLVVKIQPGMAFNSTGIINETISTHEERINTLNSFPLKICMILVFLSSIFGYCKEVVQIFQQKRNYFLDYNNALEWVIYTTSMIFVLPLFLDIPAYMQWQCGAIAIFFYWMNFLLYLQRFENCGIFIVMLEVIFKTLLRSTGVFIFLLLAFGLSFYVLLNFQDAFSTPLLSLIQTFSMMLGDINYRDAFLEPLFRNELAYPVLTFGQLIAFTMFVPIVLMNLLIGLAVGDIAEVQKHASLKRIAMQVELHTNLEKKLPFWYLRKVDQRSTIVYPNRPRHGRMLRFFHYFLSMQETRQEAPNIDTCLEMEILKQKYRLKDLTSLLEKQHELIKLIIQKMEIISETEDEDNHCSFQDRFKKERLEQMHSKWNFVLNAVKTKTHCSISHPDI
Method: as §1, §2, §3

hTRPC5 = target: T1, hTRPC5 (Homo sapiens, UniProt Q9UL62); test: Patch clamp selectivity, hTRPC5; assay type: cell-based; settings: hTRPC5 vs TRPA1
T1 sequence (Q9UL62 1-973): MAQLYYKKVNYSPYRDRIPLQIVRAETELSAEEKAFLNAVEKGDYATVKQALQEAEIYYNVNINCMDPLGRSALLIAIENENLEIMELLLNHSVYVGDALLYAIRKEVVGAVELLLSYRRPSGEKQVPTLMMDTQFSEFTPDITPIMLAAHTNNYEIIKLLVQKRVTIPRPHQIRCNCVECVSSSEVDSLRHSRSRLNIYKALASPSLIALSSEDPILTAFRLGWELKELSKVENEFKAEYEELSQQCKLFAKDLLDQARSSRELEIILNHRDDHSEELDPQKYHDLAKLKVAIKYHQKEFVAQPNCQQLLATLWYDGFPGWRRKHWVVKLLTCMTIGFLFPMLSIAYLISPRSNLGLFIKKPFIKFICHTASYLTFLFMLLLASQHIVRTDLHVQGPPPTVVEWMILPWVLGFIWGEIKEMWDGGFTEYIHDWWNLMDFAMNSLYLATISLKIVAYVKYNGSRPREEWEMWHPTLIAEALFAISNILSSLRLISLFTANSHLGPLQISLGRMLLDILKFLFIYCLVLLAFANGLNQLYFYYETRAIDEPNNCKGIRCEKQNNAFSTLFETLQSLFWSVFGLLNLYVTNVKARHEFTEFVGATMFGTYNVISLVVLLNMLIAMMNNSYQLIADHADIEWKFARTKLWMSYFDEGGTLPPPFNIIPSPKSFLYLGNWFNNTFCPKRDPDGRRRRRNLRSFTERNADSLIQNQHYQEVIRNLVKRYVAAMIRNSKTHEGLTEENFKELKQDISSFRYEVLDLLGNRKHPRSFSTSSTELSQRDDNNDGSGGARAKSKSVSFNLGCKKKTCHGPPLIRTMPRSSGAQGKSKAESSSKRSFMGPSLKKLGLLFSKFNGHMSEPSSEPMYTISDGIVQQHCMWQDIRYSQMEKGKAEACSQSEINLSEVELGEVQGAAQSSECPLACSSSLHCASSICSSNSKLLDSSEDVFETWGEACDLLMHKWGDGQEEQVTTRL
Method: as §1, §2, §3

hTRPV4, sequence (Q9HBA0 whole entry): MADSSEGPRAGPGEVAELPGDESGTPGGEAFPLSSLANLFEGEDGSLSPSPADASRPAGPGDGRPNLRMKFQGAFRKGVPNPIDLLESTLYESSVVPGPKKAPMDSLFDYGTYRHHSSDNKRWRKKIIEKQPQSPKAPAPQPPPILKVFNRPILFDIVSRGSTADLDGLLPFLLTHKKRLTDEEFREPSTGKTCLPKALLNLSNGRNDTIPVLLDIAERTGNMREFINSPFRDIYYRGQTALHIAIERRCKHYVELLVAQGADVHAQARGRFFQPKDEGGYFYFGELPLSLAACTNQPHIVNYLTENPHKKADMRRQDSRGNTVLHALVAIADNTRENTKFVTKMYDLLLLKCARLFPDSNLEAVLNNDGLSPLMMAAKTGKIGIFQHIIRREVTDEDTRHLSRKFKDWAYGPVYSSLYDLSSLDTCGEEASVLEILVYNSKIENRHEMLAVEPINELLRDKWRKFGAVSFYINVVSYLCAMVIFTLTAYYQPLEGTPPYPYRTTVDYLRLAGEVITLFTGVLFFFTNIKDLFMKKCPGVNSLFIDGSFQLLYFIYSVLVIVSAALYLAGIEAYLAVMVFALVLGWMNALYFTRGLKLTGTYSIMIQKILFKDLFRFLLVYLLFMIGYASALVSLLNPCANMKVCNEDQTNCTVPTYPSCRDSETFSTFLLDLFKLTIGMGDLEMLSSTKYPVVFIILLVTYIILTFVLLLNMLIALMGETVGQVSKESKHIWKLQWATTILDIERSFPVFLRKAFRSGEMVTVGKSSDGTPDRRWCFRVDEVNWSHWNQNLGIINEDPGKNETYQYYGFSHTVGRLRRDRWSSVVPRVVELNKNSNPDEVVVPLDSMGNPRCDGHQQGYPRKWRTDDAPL

Fold Selectivity Compared to TRPA1 (hTRPV4): ~170 Fold
IC50 (rTRPA1): ~100 nM
Fold Selectivity Compared to TRPA1 (hTRPC5): >100 Fold
SMILES: C[C@H]1CCCN1c1ncc(-c2cccc(NC(=O)Cn3cnc4c3c(=O)n(C)c(=O)n4C)n2)cn1 [Formula (Ia)]
safety signals (healthy male volunteers): no safety signals seen that were attributable to the compound
